Consider 34 molecules from ChEMBL document CHEMBL4184188, “Characterization of tyrosinase inhibitory constituents from the aerial parts of Humulus japonicus using LC-MS/MS coupled online assay” (Bioorg Med Chem, 2018).

In experiment [1] the target is T1, Tyrosinase (Agaricus bisporus) (UniProt O42713).
T1 sequence (whole entry): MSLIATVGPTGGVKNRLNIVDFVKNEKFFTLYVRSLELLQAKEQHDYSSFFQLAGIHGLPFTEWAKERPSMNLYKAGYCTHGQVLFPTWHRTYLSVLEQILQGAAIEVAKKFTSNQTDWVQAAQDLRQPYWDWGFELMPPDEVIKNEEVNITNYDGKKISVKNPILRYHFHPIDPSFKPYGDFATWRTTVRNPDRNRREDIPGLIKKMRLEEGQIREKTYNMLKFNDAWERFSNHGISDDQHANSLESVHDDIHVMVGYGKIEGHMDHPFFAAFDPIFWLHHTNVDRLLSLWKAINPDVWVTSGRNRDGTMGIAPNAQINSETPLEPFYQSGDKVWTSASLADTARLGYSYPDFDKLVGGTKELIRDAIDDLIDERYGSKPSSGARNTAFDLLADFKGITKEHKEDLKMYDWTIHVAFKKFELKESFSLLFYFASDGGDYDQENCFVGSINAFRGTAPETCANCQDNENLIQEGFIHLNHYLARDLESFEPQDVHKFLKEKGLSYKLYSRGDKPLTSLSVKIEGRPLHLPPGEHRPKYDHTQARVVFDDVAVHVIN
The experiment in a line: Inhibition of mushroom tyrosinase using tyrosine as substrate pretreated for 5 mins followed by substrate addition measured after 20 mins by ELISA.

Experiment [2] addresses T1, Tyrosinase (Agaricus bisporus). The experiment in a line: Inhibition of mushroom tyrosinase at 100 uM using tyrosine as substrate pretreated for 5 mins followed by substrate addition measured after 20 mins by ELISA relative to control.

Active and inactive are the calls of the source. The calls are words filed in the database; no cut-off is given here.

As for `COc1cc(C(C)=O)ccc1O`, in experiment [1], the inhibition entry is “inactive”.
With `C/C(=C\COC(=O)c1ccccc1O)CO[C@@H]1O[C@H](CO)[C@@H](O)[C@H](O)[C@H]1O`, the inhibition in experiment [2] is over 30%. Moreover, the inhibition result in experiment [1] is “Active”.
On to `C=CCc1ccc(O[C@@H]2O[C@H](CO)[C@@H](O)[C@H](O)[C@H]2O)c(OC)c1`, for which, in experiment [1], the inhibition result was “inactive”.
In the case of `O=Cc1c[nH]c2ccccc12`, the inhibition in experiment [2] was over 30%. Also, the inhibition entry in experiment [1] is “Active”.
As to `CC(=O)/C=C/[C@@]12O[C@]1(C)C[C@@H](O)CC2(C)C`, in experiment [1], the inhibition entry is “inactive”.
Same read-out and setting: under `CC1(C)C[C@@H](O)C[C@]2(C)OC(=O)C=C12` stands “inactive”; under `O=c1cc(-c2ccc(O)c(O)c2)oc2cc(O)cc(O)c12`, “Active”; under `COc1ccc(C(C)=O)cc1OC`, “inactive”.
Still for that read-out and setting: for `CC(=O)/C=C/[C@@]1(O)C(C)=CC(=O)CC1(C)C` the value was “inactive”.
Still for that read-out and setting: for `O=C(O)c1c[nH]c2ccccc12` the value was “Active”; for `CC1(C)C[C@@H](O)C[C@@]2(C)OC(=O)C=C12`, “inactive”.
`COc1cc(C(=O)O)ccc1O`: the inhibition entry in experiment [1] is “inactive”.
Still for that read-out and setting: for `O=C(/C=C\c1ccc(O)cc1)NCCc1ccc(O)cc1` the value was “Active”; for `O=c1cc[nH]c(=O)[nH]1`, “Active”; for `COc1cc(/C=C/C(=O)NCCc2ccc(O)cc2)ccc1O`, “inactive”.
As for `COc1ccc(C=O)cc1O`, the inhibition entry in experiment [1] was “inactive”.
On to `CCOC(C)=O`, for which, in experiment [1], the inhibition result is “Active”.
Still for that read-out and setting: under `O=c1cc(-c2ccc(O)cc2)oc2cc(O)cc(O)c12` stands “Active”; under `O=C(O)c1ccc(O)cc1`, “Active”.
`O=Cc1ccccc1`: the inhibition entry in experiment [1] is “Active”.
On the same count and under the same terms, for `CC(=O)C=C=C1C(C)(C)C[C@H](O)C[C@@]1(C)O` the value was “inactive”.
Still for that read-out and setting: under `COC(=O)c1c[nH]c2ccccc12` stands “Active”.
As to `COc1cc2oc(=O)ccc2cc1O`, the inhibition in experiment [2] is over 30%. Moreover, the inhibition result in experiment [1] was “Active”.
As for `COc1cc2ccc(=O)oc2cc1O`, in experiment [2], the inhibition is over 30%. In addition, the inhibition result in experiment [1] was “Active”.
In the case of `O=C(/C=C/c1ccc(O)cc1)NCCc1ccc(O)cc1`, in experiment [1], the inhibition entry was “Active”.
For the molecule `O=C(O)c1ccccc1`, the inhibition result in experiment [1] is “Active”.
Still for that read-out and setting: for `NC(=O)c1cccnc1` the value was “Active”; for `CC1=CC(=O)CC(C)(C)/C1=C/C[C@@H](C)O`, “inactive”.
Regarding `COc1cc(/C=C\C(=O)NCCc2ccc(O)cc2)ccc1O`, the inhibition result in experiment [1] was “inactive”.
Same read-out and setting: for `O=c1cc(-c2ccc(O)cc2)oc2c([C@@H]3O[C@H](CO)[C@@H](O)[C@H](O)[C@H]3O)c(O)cc(O)c12` the value was “inactive”.
Still for that read-out and setting: for `CC1=CC(=O)CC(C)(C)[C@@]1(O)CC[C@H](C)O` the value was “inactive”; for `CC(=O)/C=C/[C@H]1C(C)=C[C@H](O)CC1(C)C`, “inactive”; for `NC(=O)/C=C/c1ccc(O)cc1`, “Active”.
Same read-out and setting: under `C/C(=C\COC(=O)c1ccccc1)CO[C@@H]1O[C@H](CO)[C@@H](O)[C@H](O)[C@H]1O` stands “Active”.
